What was measured:
[1] = tested on: scopolamine-induced amnesia models; assay: Anti-dementia effect in scopolamine-induced amnesia models, step-through type passive avoidance (recall trial); format: in vivo, Male Wistar rats; settings: oral, scopolamine 1 mg/kg i.p., 24 h after acquisition trial
Procedure: The effect of Compound (I) on dementia was determined by scopolamine-induced amnesia models (Basic, Clinical, and Therapeutic Aspects of Alzheimer's and Parkinson's Diseases: Vol. 2; T. Nagatsu, et al. edt; pp449; Plenum Press New York; 1990).
[…] The test was performed with a step-through type passive avoidance apparatus (the bright and dark box).
The bright and dark box was made up of a bright compartment (25×25×25 cm) lighted by 4W white fluorescent light and a dark compartment (25×25×25 cm). […] In order to give a foot shock, the electric current (2 mA: 2 sec) may be passed through the grid floor of the dark compartment.
The compound to be tested was suspended in 0.3% aqueous solution of carboxymethyl cellulose (CMC) and the suspension was orally administered 60 minutes before the acquisition trial. Only 0.3% CMC was given to the control group.
Amnesia-inducing treatment was carried out by intraperitoneally administering 1 mg/kg of scopolamine 30 minutes before the following acquisition trial.
The training for acquisition of learning (acquisition trial) was carried out. The rat was introduced into the bright compartment, and after 5 to 10 seconds, the guillotine door was opened. The rat in the bright compartment rapidly moved into the dark compartment. As soon as the whole body of the rat entered the dark compartment, the guillotine door was closed and an electric current of 2 mA was passed through the grid floor for two seconds (foot shock). Immediately after the foot shock, the rat was taken out of the dark compartment.
The test trial for observing the retention and recall of the memory (recall trial) was carried out as follows. Twenty-four hours after the acquisition trial, the rat was placed in the bright compartment and the guillotine door was opened. The length of time before the rat entered the dark compartment (latency) was measured. The latency was measured up to 600 seconds and the latency longer than 600 seconds was recorded as 600 seconds.
In the experiment, the amnesia control group had undergone the amnesia-inducing treatment and the normal control group had not undergone the amnesia-inducing treatment.
The anti-dementia effect was evaluated by Mann Whitney U-test to determine whether there was a significant difference in latency between the test compound treated group and the amnesia control group.

dd strain male mice = assay: Acute Toxicity Test, minimum lethal dose (MLD); format: in vivo; settings: oral, mortality 7 days after administration
Excerpt: Compounds 1 and 5 were orally administered to dd strain male mice (body weight: 20±1 g, 3 mice/group). The mortality was observed 7 days after the administration to determine the minimum lethal dose (MLD).

| SMILES | Recall trial mean reaction latency ([1]; 0.02 mg/Kg, 17 animals) | Recall trial mean reaction latency ([1]; 0.08 mg/Kg, 18 animals) | Recall trial mean reaction latency ([1]; 0.31 mg/Kg, 18 animals) | Recall trial mean reaction latency ([1]; 1.25 mg/Kg, 17 animals) | Recall trial mean reaction latency ([1]; 5.0 mg/Kg, 18 animals) | Recall trial mean reaction latency ([1]; 20.0 mg/Kg, 17 animals) | minimum lethal dose (MLD) (dd strain male mice) |
| --- | --- | --- | --- | --- | --- | --- | --- |
| CCCn1c(=O)c2nc(C3CCCC3)[nH]c2n(CCc2ccc(NC(C)=O)cc2)c1=O [Compound 1, 3-(4-acetylaminophenethyl)-8-cyclopentyl 1-propylxanthine] | 137.3 ± 44.5 s | 174.8 ± 56.1 s | 130.4 ± 38.5 s | 170.3 ± 50.4 s | 187.2 ± 50.2 s | 116.2 ± 43.4 s | > 300 mg/kg |
| CCCn1c(=O)c2[nH]c(C3CCCC3)nc2n(CCc2ccc(NC(=O)C3CCCC3)cc2)c1=O [Compound 5, 3-[4-(cyclopentanecarbonylamino)-phenethyl]-8-cyclopentyl-1-propylxanthine] |  |  |  |  |  |  | > 300 mg/kg |

Source: patent US5336769A, “Xanthine derivatives” (Kyowa Hakko Kogyo Co., Ltd., priority 1992, dated 1994)
